From patent US11866416B2, “Streptococcus mutans glucosyl transferase inhibitors for dental caries therapy” (UAB Research Foundation, priority 2018, dated 2024)
Converted amounts (≈) assume the structure as drawn. Where two headings read alike, the source gives them in different places. Marks after values point to notes of the source that are not given here.

Experiments:
S. mutans biofilm = S. mutans biofilm formation and inhibition assay (96-well plates, crystal violet); assay type: cell-based, Streptococcus mutans
Method: Biofilm assays using 96-well flat-bottom polystyrene microtiter plates were performed to evaluate S. mutans biofilm formation at various conditions as described (Liu et al. (2011) Antimicrobial Agents and Chemotherapy 55, 2679; Zhang et al. (2015) International Journal of Antimicrobial Agents 46, 174), the disclosures of which are incorporated herein by reference in their entirety). Each assay was replicated three times. Compounds that inhibited biofilm formation at minimum concentration (MBIC) were determined by serial dilutions.
S. mutans biofilm formation and inhibition assays. […] Each assay was replicated three times. Minimum biofilm inhibitory concentration (MBIC) of compounds was determined by serial dilutions.
S. mutans biofilm formation and inhibition assays. Biofilm assays using 96-well flat-bottom polystyrene microtiter plates were performed to evaluate S. mutans biofilm formation at various conditions as described. Each assay was replicated […]. Compounds that inhibited 50% biofilm formation were determined by serial dilutions.
S. mutans biofilm formation and inhibition assays. A well-established protocol to study S. mutans biofilm formation in 96-well flat-bottom polystyrene microtiter plates was used, in triplicate (Mattos-Graner, R. O.; Napimoga, M. H.; Fukushima, K.; Duncan, M. J.; Smith, D. J., Comparative analysis of Gtf isozyme production and diversity in isolates of Streptococcus mutans with different biofilm growth phenotypes. Journal of clinical microbiology 2004, 42 (10), 4586-4592). The stock solutions were made up in 100% DMSO, and final concentration of DMSO used in the assays was 1%. Minimum biofilm inhibitory concentration (MBIC) of compounds was determined by serial dilutions.

S. mutans = assay: microbe, parasite or virus in culture; assay type: cell-based, Streptococcus mutans; conditions: for MIC50: Streptococcus mutans; for Selectivity: growth versus biofilm
Method: Cell viability of S. mutans, S. gordonii, S. sanguinis, Aggregatibacter actinomycetemcomitans and Actinomyces. […] The number of colony-forming units (CFU) per milliliter of each sample treated with selected compounds at different concentrations was enumerated after incubation for 24 h at 37° C. and compared to the values obtained from the DMSO control group. Overnight broth cultures were transferred by 1:50 dilutions into fresh THB medium and were allowed to grow until mid-exponential phase (OD470 nm 0.6) before transfer to 96-well plates containing desired concentration of the compound. After 16 h incubation, bacterial growth was measured at OD470, and normalized to the DMSO control (100%).
Cell viability of S. mutans and commensal S. gordonii and S. sanguinis. Effects of lead small molecules on cell viability were examined. The number of colony-forming units (CFU) per milliliter for each compound at different concentrations was determined after incubation for 24 h at 37° C. and compared to the values obtained from the DMSO control group.
Cell viability of S. mutans and commensal S. gordonii and S. sanguinis. […] DMSO served as a control group and provided a relative comparison for the number of colony-forming units (CFU) per milliliter for each compound at different concentrations was determined after incubation for 24 h at 37° C. The final concentration of DMSO used in the assays was 1%.

[1] = Streptococcus mutans, Table 1, >500 = no inhibition up to 500 μM, read-out: Biofilm Inhibition IC50
[2] = Streptococcus mutans, Table 2, read-out: Biofilm Inhibition IC50
[3] = Table 2, >300 = no inhibition up to 300 μM, read-out: Growth Inhibition MIC50
[4] = Streptococcus mutans, Table 4, stilbenes, NI = no inhibition, read-out: Biofilm IC50
[5] = Streptococcus mutans, Table 8, stilbenes, NI = no inhibition, read-out: Biofilm IC50
[6] = Table 4, stilbenes, average of at least 5 measurements, NI = no inhibition, read-out: Growth MIC50
[7] = Table 8, stilbenes, average of at least 5 measurements, NI = no inhibition
[8] = Table 6, chalcones, 200 μM, NI = no inhibition
[9] = Streptococcus mutans, Table 3, read-out: Biofilm Inhibition IC50
[10] = Table 3, >300 = no inhibition up to 300 μM, NI = no inhibition up to 400 μM, read-out: Growth Inhibition MIC50
[11] = Streptococcus mutans, Table 5, >500 = no inhibition up to 500 μM, read-out: Biofilm Inhibition IC50

SMILES	IC50 (S. mutans biofilm; [1])	IC50 (S. mutans biofilm; [2])	MIC50 (S. mutans; [3])	other results
CC(C)(C)OC(=O)NCc1ccccc1NC(=O)c1cc2cc([N+](=O)[O-])ccc2s1 [AJ]	51.5 µM	51.5 µM	> 300 µM	–
Oc1ccc(/C=C/c2ccc(O)cc2)cc1 [Entry 4]	–	–	–	IC50 (S. mutans biofilm; [4]): 344 ± 17 µM; IC50 (S. mutans biofilm; [5]): 344 ± 17 µM; MIC50 (S. mutans; [6]): 854 ± 58 µM (≈ 181 µg/mL); Selectivity (S. mutans; Table 4, stilbenes): 2.4; Growth MIC50 (S. mutans; [7]): 854 ± 58 µM; Selectivity (S. mutans; Table 8, stilbenes): 2.4
COC(=O)c1ccc(NC(=O)c2cc3cc([N+](=O)[O-])ccc3[nH]2)cc1 [BZ]	196 µM	–	> 300 µM	–
COc1ccc(/C=C/C(=O)c2ccc(OC)c(OC)c2)cc1O [Compound 13]	–	–	–	Biofilm inhibition 200 μM (%) (S. mutans biofilm; [8]): 27 ± 4%; biofilm inhibition at 200 μM (S. mutans biofilm; chalcones, 200 μM): 30%; activity of stilbenes against S. mutans biofilm (S. mutans biofilm; stilbenes): not active against biofilm and growth; Growth inhibition 200 μM (%) (S. mutans; [8]): 30 ± 0.7%; growth inhibition at 200 μM (S. mutans; chalcones, 200 μM): 30%; activity of stilbenes against S. mutans growth (S. mutans; stilbenes): not active against biofilm and growth
CC(C)c1ccccc1NC(=O)c1cc2cc([N+](=O)[O-])ccc2s1 [BJ]	262 µM	–	–	–
Cl.NC(=O)c1ccccc1NC(=O)c1cc2cc(N)ccc2s1 [SN-II-81Cl]	–	9.6 µM	–	Growth Inhibition MIC50 (S. mutans; Table 2, >300 = no inhibition up to 300 μM): >300^b μM
COc1ccc(/C=C2\Oc3ccccc3C2=O)cc1OC [LC-I-197]	–	–	–	IC50 (S. mutans biofilm; [9]): 8.4 ± 1 µM; MIC50 (S. mutans; [10]): 37.1 ± 6 µM (≈ 10.5 µg/mL)
O=C(O)c1ccc(NC(=O)c2cc3cc([N+](=O)[O-])ccc3s2)cc1 [SN-I-272OH]	–	15.6 µM	> 300 µM	–
COc1cc(O)ccc1/C=C1\Oc2ccccc2C1=O [SN-II-115]	–	–	–	IC50 (S. mutans biofilm; [9]): 133 ± 24 µM; MIC50 (S. mutans; [10]): 153 ± 21 µM (≈ 41 µg/mL)
COc1ccc2[nH]c(C(=O)Nc3ccc(C(N)=O)cc3)cc2c1 [BY]	> 500 µM	–	–	–
O=c1c(O)c(-c2ccc(O)cc2)oc2ccccc12 [SN-II-78]	–	–	–	IC50 (S. mutans biofilm; [9]): 200 ± 10 µM
O=C(/C=C/c1ccc(O)cc1)c1ccccc1O [SN-II-113]	–	–	–	IC50 (S. mutans biofilm; [9]): 213 ± 7 µM; MIC50 (S. mutans; [10]): > 300 µM
COc1cc(-c2[o+]c3cc(O)cc(O)c3cc2O)cc(O)c1O [PAC]	–	–	–	IC50 (S. mutans biofilm; [9]): 61.2 ± 2.3 µM; MIC50 (S. mutans; [10]): 274 ± 45.8 µM
CCc1ccccc1NC(=O)c1cc2cc([N+](=O)[O-])ccc2s1 [BL]	158 µM	158 µM	> 300 µM	–
O=C(Nc1ccccc1)c1cc2cc([N+](=O)[O-])ccc2s1 [Compound 3D]	> 500 µM	–	–	IC50 (S. mutans biofilm; [11]): > 500 µM
N=C(N)c1ccc(/C=C/c2ccc(C(=N)N)cc2O)cc1 [Compound 5]	–	–	–	effect on S. mutans biofilm in the preliminary screen (S. mutans biofilm; chalcones, 200 μM): did not possess any bactericidal or anti-biofilm properties; IC50 (S. mutans biofilm; read-out: S. mutans biofilm IC50): 104 µM; S. mutans growth IC50 / MIC50 (S. mutans): 179 µM; effect on S. mutans growth (S. mutans; chalcones, up to 200 μM): did not possess any bactericidal or anti-biofilm properties
COc1cc(OC)c(OC)cc1/C=C1\Oc2ccccc2C1=O [LC-I-205]	–	–	–	IC50 (S. mutans biofilm; [9]): 8.3 ± 1 µM; MIC50 (S. mutans; [10]): > 300 µM
O=c1c(O)c(-c2ccc(O)cc2O)oc2ccccc12 [SN-II-79]	–	–	–	IC50 (S. mutans biofilm; [9]): 65.9 ± 1 µM; MIC50 (S. mutans; [10]): 30 ± 1 µM (≈ 8.11 µg/mL)
N=C(N)c1ccc(/C=C/c2ccc(C(=N)N)cc2O)cc1 [Entry 5]	–	–	–	IC50 (S. mutans biofilm; [4]): 104 ± 7 µM; IC50 (S. mutans biofilm; [5]): 104 ± 7 µM; MIC50 (S. mutans; [6]): 179 ± 23 µM (≈ 50.2 µg/mL); Growth MIC50 (S. mutans; [7]): 179 ± 23 µM
COc1ccc(/C=C/C(=O)c2ccc3c(c2)OCO3)cc1O [Compound 14]	–	–	–	effect on S. mutans biofilm in the preliminary screen (S. mutans biofilm; chalcones, 200 μM): no anti-biofilm effects
Cc1ccc(S(=O)(=O)Nc2ccccc2N)cc1 [BU]	> 500 µM	–	–	–
O=c1c(O)c(-c2cc(O)c(O)c(O)c2)oc2cc(O)ccc12 [PAY]	–	–	–	IC50 (S. mutans biofilm; [9]): 74.5 ± 9.8 µM
NC(=O)c1ccc(NC(=O)c2cc3cc([N+](=O)[O-])ccc3s2)cc1 [BV]	395 µM	–	–	–

The next lines start with results.

IC50 (S. mutans biofilm; [1])	IC50 (S. mutans biofilm; [2])	MIC50 (S. mutans; [3])	SMILES	other results
> 500 µM	–	–	NC(=O)c1ccccc1NC(=O)c1cc2ccccc2[nH]1 [Compound 3E]	–
–	12.8 µM	> 300 µM	CN(C)c1ncc(/C=C/C(=O)Nc2ccccc2C(N)=O)cn1 [SN-I-271S]	–
79.9 µM	79.9 µM	> 300 µM	NC(=O)c1cccc(NC(=O)c2ccc(-c3ccccc3)cc2)c1 [AR]	–
–	98.3 µM	> 300 µM	NCc1ccccc1NC(=O)c1cc2cc([N+](=O)[O-])ccc2[nH]1 [Compound 298C10]	–
54.4 µM	54.4 µM	> 300 µM	NC(=O)c1ccc(NC(=O)c2ccc3ccccc3n2)cc1 [BC]	–
446 µM	–	–	NC(=O)c1ccccc1NC(=O)c1cccc2ccccc12 [BQ]	–
–	121 µM	> 300 µM	COC(=O)c1cccc(NC(=O)c2cc3ccccc3s2)c1 [Compound 298D5]	–
41.2 µM	41.2 µM	> 300 µM	COC(=O)c1ccc(NC(=O)c2cc3ccccc3s2)cc1 [Compound 3V]	–
84.1 µM	–	–	NC(=O)c1ccccc1NC(=O)c1ccc2ccccc2c1 [AS]	–
–	92.3 µM	> 300 µM	COC(=O)c1cccc(NC(=O)c2ccc3ccccc3n2)c1 [Compound 298G5]	–
> 500 µM	–	–	NC(=O)c1ccccc1NC(=O)c1cc2cc([N+](=O)[O-])ccc2[nH]1 [Compound 3H]	–
147 µM	147 µM	> 300 µM	COC(=O)c1cccc(NC(=O)c2cnc3ccccc3c2)c1 [AA]	–
93.3 µM	93.3 µM	> 300 µM	NCc1ccccc1NC(=O)c1cccc2ccccc12 [AN]	–
> 500 µM	–	–	NC(=O)c1ccc(NC(=O)c2ccc3ccccc3c2)cc1 [AW]	–
116 µM	116 µM	> 300 µM	NC(=O)c1cccc(NC(=O)c2cc3ccccc3s2)c1 [Compound 3X]	–
71.4 µM	71.4 µM	> 300 µM	COC(=O)c1ccccc1NC(=O)c1cc2cc([N+](=O)[O-])ccc2o1 [BB]	–
195 µM	195 µM	> 300 µM	NC(=O)c1cccc(NC(=O)c2cccc3ccccc23)c1 [BS]	–
136 µM	136 µM	> 300 µM	NCc1ccccc1NC(=O)c1cnc2ccccc2c1 [AL]	–

IC50 (S. mutans biofilm; [1])	IC50 (S. mutans biofilm; [2])	MIC50 (S. mutans; [3])	SMILES	other results
8.6 µM	8.6 µM	> 300 µM	NC(=O)c1cccc(NC(=O)c2cnc3ccccc3c2)c1 [Compound 3R]	–
> 500 µM	–	–	O=C(Nc1ccccc1I)c1cnc2ccccc2c1 [BG]	–
–	30.4 µM	> 300 µM	NC(=O)c1ccccc1OC(=O)c1cnc2ccccc2c1 [Compound 298F7]	–
> 500 µM	–	–	NC(=O)c1ccccc1NC(=O)c1ccc(-c2ccccc2)cc1 [AU]	–
–	65.1 µM	> 300 µM	NC(=O)c1ccccc1NC(=O)c1ccc2ncoc2c1 [HW-1-179]	–
55.6 µM	55.6 µM	> 300 µM	NC(=O)c1ccccc1OC(=O)c1ccc(-c2ccccc2)cc1 [AQ]	–
> 500 µM	–	–	NC(=O)c1ccc(NC(=O)c2cnc3ccccc3c2)cc1 [Compound 3T]	–
239 µM	–	–	NC(=O)c1ccc(NC(=O)c2cc3cc([N+](=O)[O-])ccc3o2)cc1 [AG]	–
> 500 µM	–	–	CC(C)c1ccccc1NC(=O)c1cnc2ccccc2c1 [BK]	–
> 500 µM	–	–	NC(=O)c1ccccc1NC(=O)c1ccc2ccccc2n1 [AY]	–
> 500 µM	–	–	COC(=O)c1ccccc1NC(=O)c1cc2cc([N+](=O)[O-])ccc2s1 [Compound 3C]	–
446 µM	–	–	COC(=O)c1ccccc1NC(=O)c1cnc2ccccc2c1 [BF]	–
> 500 µM	–	–	NC(=O)c1ccccc1OC(=O)c1cc2ccccc2s1 [AF]	–
> 500 µM	–	–	O=C(Nc1ccccc1)c1cnc2ccccc2c1 [Compound 3L]	IC50 (S. mutans biofilm; [11]): > 500 µM
204 µM	–	–	CCc1ccccc1NC(=O)c1cnc2ccccc2c1 [BH]	–
279 µM	–	–	NC(=O)c1ccccc1OC(=O)c1cc2cc([N+](=O)[O-])ccc2o1 [BA]	–
270 µM	–	–	NC(=O)c1cccc(NC(=O)c2ccc3ccccc3c2O)c1 [BP]	–
